From PubChem BioAssay AID330 (DTP/NCI, 2004)
Where “and” joins values, the source holds several entries; their conditions need not be identical. Equal values may be shown once. Toxic doses and inconclusive results are not listed. The calls were made as follows: active = survival T/C of 150% or more; inactive = T/C below 125% in these data.

Test system: P388 leukemia ip, CD2F1 mice, survival T/C
Experiment: NCI In Vivo Anticancer Drug Screen. Data for tumor model P388 Leukemia (intraperitoneal) in CD2F1 (CDF1) mice
Conditions: endpoint: median survival time, higher = longer survival
How it was run: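 Mice carrying the transplanted tumor received test compound or vehicle. Survival was recorded in each group, and the value is the treated-group measurement divided by that of the vehicle-treated control group.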

[1] = dose: 50.0 mg/kg/injection, schedule: Q01DX005 (ip), vehicle: Klucel (hydroxypropylcellulose) (HPC)
[2] = dose: 100.0 mg/kg/injection, schedule: Q01DX005 (ip), vehicle: Klucel (hydroxypropylcellulose) (HPC)
[3] = dose: 200.0 mg/kg/injection, schedule: Q01DX005 (ip), vehicle: Klucel (hydroxypropylcellulose) (HPC)
[4] = dose: 50.0 mg/kg/injection, schedule: Q01DX009 (ip), vehicle: Klucel (hydroxypropylcellulose) (HPC)
[5] = dose: 100.0 mg/kg/injection, schedule: Q01DX009 (ip), vehicle: Klucel (hydroxypropylcellulose) (HPC)
[6] = dose: 50.0 mg/kg/injection, schedule: Q01DX009 (ip), vehicle: suspension in saline
[7] = dose: 100.0 mg/kg/injection, schedule: Q01DX009 (ip), vehicle: suspension in saline
[8] = dose: 200.0 mg/kg/injection, schedule: Q01DX009 (ip), vehicle: suspension in saline
[9] = dose: 50.0 mg/kg/injection, schedule: Q01DX005 (ip), vehicle: saline with Tween-80
[10] = dose: 100.0 mg/kg/injection, schedule: Q01DX005 (ip), vehicle: saline with Tween-80
[11] = dose: 200.0 mg/kg/injection, schedule: Q01DX005 (ip), vehicle: saline with Tween-80
[12] = dose: 60.0 mg/kg/injection, schedule: Q01DX005 (ip), vehicle: saline with Tween-80
[13] = dose: 240.0 mg/kg/injection, schedule: Q01DX005 (ip), vehicle: saline with Tween-80
[14] = dose: 60.0 mg/kg/injection, schedule: Q01DX005 (ip), vehicle: Klucel (hydroxypropylcellulose) (HPC)
[15] = dose: 120.0 mg/kg/injection, schedule: Q01DX005 (ip), vehicle: Klucel (hydroxypropylcellulose) (HPC)
[16] = dose: 240.0 mg/kg/injection, schedule: Q01DX005 (ip), vehicle: Klucel (hydroxypropylcellulose) (HPC)
[17] = dose: 50.0 mg/kg/injection, schedule: Q01DX009 (ip), vehicle: saline with Tween-80
[18] = dose: 100.0 mg/kg/injection, schedule: Q01DX009 (ip), vehicle: saline with Tween-80
[19] = dose: 100.0 mg/kg/injection, schedule: Q04DX003 (ip), vehicle: saline with Tween-80
[20] = dose: 200.0 mg/kg/injection, schedule: Q01DX009 (ip), vehicle: saline with Tween-80
[21] = dose: 200.0 mg/kg/injection, schedule: Q04DX003 (ip), vehicle: saline with Tween-80
[22] = dose: 400.0 mg/kg/injection, schedule: Q04DX003 (ip), vehicle: saline with Tween-80

Measured: T/C

COC(=O)C1=C(C(=O)OC)P2(c3ccccc3)(c3ccccc3)S/C(=N\P(C)(C)=S)N2C1(c1ccccc1)c1ccccc1
inactive: [1] 98 % of control | [2] 88 % of control | [3] 92 % of control

COC1=CC(=O)c2c(O)c3c(c(O)c2C1=O)OC1(Oc2c(cc4cc(C)oc(=O)c4c2O)CC1O)C3O (stereo not drawn)
inactive: dose: 3.0 mg/kg/injection, schedule: Q01DX009 (ip), vehicle: Klucel (hydroxypropylcellulose) (HPC) 100 % of control | dose: 6.0 mg/kg/injection, schedule: Q01DX009 (ip), vehicle: Klucel (hydroxypropylcellulose) (HPC) 117 % of control | dose: 12.0 mg/kg/injection, schedule: Q01DX009 (ip), vehicle: Klucel (hydroxypropylcellulose) (HPC) 99 % of control | dose: 24.0 mg/kg/injection, schedule: Q01DX009 (ip), vehicle: Klucel (hydroxypropylcellulose) (HPC) 99 % of control

Cc1ccc(N2C(=O)CC3(CCCCC3)C2=O)cc1C
inactive: [4] 106 % of control | [5] 105 % of control | dose: 200.0 mg/kg/injection, schedule: Q01DX009 (ip), vehicle: Klucel (hydroxypropylcellulose) (HPC) 97 % of control

O=C1CCSC(=S)N1c1ccc(Br)c(Cl)c1
inactive: [6] 116 % of control | [7] 116 % of control | [8] 106 % of control

c1ccc2c(c1)NC(c1ccc3c(c1)Sc1cc(C4Nc5ccccc5N4)ccc1O3)N2
inactive: [9] 95 % of control | [10] 102 % of control | [11] 100 % of control

Cn1nc2c(c1-c1cccnc1)CCCc1ccccc1-2
inactive: dose: 12.5 mg/kg/injection, schedule: Q01DX009 (ip), vehicle: other 113 % of control | dose: 25.0 mg/kg/injection, schedule: Q01DX009 (ip), vehicle: other 110 % of control | dose: 50.0 mg/kg/injection, schedule: Q01DX009 (ip), vehicle: other 110 % of control | dose: 100.0 mg/kg/injection, schedule: Q01DX009 (ip), vehicle: other 99 % of control | dose: 200.0 mg/kg/injection, schedule: Q01DX009 (ip), vehicle: other 100 % of control

CCCCCCC(O)Cc1cc(-c2ccccc2)nc(=O)[nH]1 (stereo not drawn)
inactive: dose: 15.0 mg/kg/injection, schedule: Q01DX005 (ip), vehicle: saline with Tween-80 97 % of control | [12] 87 % of control | [13] 95 % of control

O=Cc1ccccc1C=O
inactive: dose: 100.0 mg/kg/injection, schedule: Q04DX002 (ip), vehicle: saline with Tween-80 98 % of control | dose: 200.0 mg/kg/injection, schedule: Q04DX002 (ip), vehicle: saline with Tween-80 107 % of control | dose: 400.0 mg/kg/injection, schedule: Q04DX002 (ip), vehicle: saline with Tween-80 102 % of control

CCCCCCCCCSc1nc2ccc(NC(=O)/C=C/C(=O)O)cc2s1
inactive: dose: 12.5 mg/kg/injection, schedule: Q01DX009 (ip), vehicle: Klucel (hydroxypropylcellulose) (HPC) 97 % of control | dose: 25.0 mg/kg/injection, schedule: Q01DX009 (ip), vehicle: Klucel (hydroxypropylcellulose) (HPC) 107 % of control | [4] 106 % of control and 107 % of control | [5] 113 % of control

S=c1cn[nH]c2ccc(S)cc12
inactive: [9] 88 % of control | [10] 99 % of control | [11] 97 % of control

Clc1ccc(Nc2c3ccccc3nc3c2cnn3-c2ccccc2)cc1
inactive: [14] 89 % of control | [15] 99 % of control and 93 % of control | [16] 100 % of control and 90 % of control

C/C(=C\Cl)COC1CCCCO1 (stereo not drawn)
inactive: [17] 122 % of control | [18] 122 % of control

CC(C)N(CCO)CC(O)Cn1cnc2ncnc(N)c21 (stereo not drawn)
inactive: dose: 60.0 mg/kg/injection, schedule: Q01DX005 (ip), vehicle: saline 94 % of control | dose: 120.0 mg/kg/injection, schedule: Q01DX005 (ip), vehicle: saline 97 % of control | dose: 240.0 mg/kg/injection, schedule: Q01DX005 (ip), vehicle: saline 94 % of control

O=Nc1c2n[nH]c1CCCCCCCCC2
inactive: [1] 101 % of control | [2] 101 % of control | [3] 98 % of control

O=C(CSc1nc2ccccc2s1)NCCO
inactive: [9] 97 % of control | [10] 99 % of control | [11] 97 % of control

CC1(O)CCC2C3CCC4CC(=O)CCC4(C)C3(F)C(O)CC21C (stereo not drawn)
inactive: [18] 100 % of control | [19] 100 % of control | [20] 100 % of control | [21] 100 % of control | dose: 400.0 mg/kg/injection, schedule: Q01DX009 (ip), vehicle: saline with Tween-80 95 % of control | [22] 100 % of control

C[C@H](CSC(=O)c1ccccc1)C(=O)N1c2ccccc2C[C@H]1C(=O)O
inactive: dose: 60.0 mg/kg/injection, schedule: Q01DX005 (ip), vehicle: saline + Tween-80 + alcohol 102 % of control | dose: 120.0 mg/kg/injection, schedule: Q01DX005 (ip), vehicle: saline + Tween-80 + alcohol 102 % of control | dose: 240.0 mg/kg/injection, schedule: Q01DX005 (ip), vehicle: saline + Tween-80 + alcohol 104 % of control

O=c1oc(NC2CCCCC2)nc2ccccc12
inactive: [14] 93 % of control | [15] 92 % of control | [16] 92 % of control

COc1ccc(NC(=S)N(C)C)cc1
inactive: [19] 95 % of control | [21] 100 % of control | [22] 95 % of control

CC1(C)CC2C[C@H]3CC[C@@H]4O[C@]34C2[C@H]1OC(=O)/C=C/c1ccccc1 (stereo partly drawn)
inactive: dose: 74.5 mg/kg/injection, schedule: Q01DX001 (ip), vehicle: saline with Tween-80 100 % of control | dose: 149.0 mg/kg/injection, schedule: Q01DX001 (ip), vehicle: saline with Tween-80 99 % of control | dose: 298.0 mg/kg/injection, schedule: Q01DX001 (ip), vehicle: saline with Tween-80 99 % of control

Cc1cc(O)c(C(c2cccnc2)c2c(O)cc(C)[nH]c2=O)c(=O)[nH]1
inactive: [17] 104 % of control | [18] 98 % of control | [20] 99 % of control

CCOc1c(N=Nc2ccccc2OC)c(-c2ccccc2)nn1C(=S)S
inactive: [9] 102 % of control | [10] 101 % of control | [11] 108 % of control

Fc1ccc(CSC(=S)Nc2ccc(F)cc2)cc1
inactive: [6] 108 % of control | [7] 103 % of control | [8] 108 % of control

COC(=O)c1c[nH]c(=O)[nH]c1=O
inactive: [12] 94 % of control | dose: 120.0 mg/kg/injection, schedule: Q01DX005 (ip), vehicle: saline with Tween-80 105 % of control | [13] 112 % of control
